Data published in patent US10150774B2, “Compounds and methods” (INTRA-CELLULAR THERAPIES, INC., priority 2014, dated 2018).

system: PDE1; assay: Measurement of PDEIB inhibition in vitro using IMAP phosphodiesterase assay kit; format: biochemical, bovine or human
From the text: Example 10: Measurement of PDEIB Inhibition in Vitro Using IMAP Phosphodiesterase Assay Kit
Phosphodiesterase I B (PDEIB) is a calcium/calmodulin dependent phosphodiesterase enzyme that converts cyclic guanosine monophosphate (cGMP) to 5′-guanosine monophosphate (5′-GMP). PDEIB can also convert a modified cGMP substrate, such as the fluorescent molecule cGMP-fluorescein, to the corresponding GMP-fluorescein. The generation of GMP-fluorescein from cGMP-fluorescein can be quantitated, using, for example, the IMAP (Molecular Devices, Sunnyvale, Calif.) immobilized-metal affinity particle reagent.
Briefly, the IMAP reagent binds with high affinity to the free 5′-phosphate that is found in GMP-fluorescein and not in cGMP-fluorescein. The resulting GMP-fluorescein-IMAP complex is large relative to cGMP-5 fluorescein. Small fluorophores that are bound up in a large, slowly tumbling, complex can be distinguished from unbound fluorophores, because the photons emitted as they fluoresce retain the same polarity as the photons used to excite the fluorescence.
In the phosphodiesterase assay, cGMP-fluorescein, which cannot be bound to IMAP, and therefore retains little fluorescence polarization, is converted to GMPfluorescein, which, when bound to IMAP, yields a large increase in fluorescence polarization (mp). Inhibition of phosphodiesterase, therefore, is detected as a decrease in mp.
Materials: All chemicals are available from Sigma-Aldrich (St. Louis, Mo.) except for IMAP reagents (reaction buffer, binding buffer, FL-GMP and IMAP beads), which are available from Molecular Devices (Sunnyvale, Calif.).
Assay: The following phosphodiesterase enzymes may be used: 3′,5′-cyclic-nucleotide specific bovine brain phosphodiesterase (Sigma, St. Louis, Mo.) (predominantly PDEIB) and recombinant full length human PDE1 A and PDE1B (r-hPDE1 A and r-hPDE1B respectively) which may be produced e.g., in HEK or SF9 cells by one skilled in the art. The PDE1 enzyme is reconstituted with 50% glycerol to 2.5 U/mL. One unit of enzyme will hydrolyze 1.0 μmol of 3′,5′-cAMP to 5′-AMP per min at pH 7.5 at 30° C. […]
The FL-GMP conversion reaction is initiated by combining 4 parts enzyme and inhibitor mix with 1 part substrate solution ([…]) in a 384-well microtiter plate. […] The plate is incubated at room temperature for 1 hour to allow IMAP binding to proceed to completion, and then placed in an Envision multimode microplate reader (PerkinElmer, Shelton, Conn.) to measure the fluorescence polarization (mp).
A decrease in GMP concentration, measured as decreased mp, is indicative of inhibition of PDE activity.

Selectivity for PDE1, good selectivity:
CN1C(=O)c2c(nn(Cc3ccc(-c4ccccn4)cc3)c2Nc2ccc(F)cc2)N2CC(C)(C)N=C12 [Example 1, 7,8-Dihydro-2-(4-(pyridine-2-yl)benzyl)-3-(4-fluorophenylamino)-5,7,7-trimethyl-[2H]-imidazo-[1,2-a]pyrazolo[4,3-e]pyrimidin-4(5H)-one]
CN1C(=O)c2c(nn(Cc3ccc(Cl)cc3)c2Nc2ccc(F)cc2)N2CC(C)(C)N=C12 [Example 9, 7,8-Dihydro-2-(4-chlorobenzyl)-3-(4-fluorophenylamino)-5,7,7-trimethyl-[2H]-imidazo-[1,2-a]pyrazolo[4,3-e]pyrimidin-4(5H)-one]
CCCc1c2c(nn1Cc1ccc(-c3ccc(F)cn3)cc1)N1CC(C)(C)N=C1N(C)C2=O [Example 7, 7,8-Dihydro-2-(4-(5-fluoropyridin2-yl)benzyl)-3-propyl-5,7,7-trimethyl-[2H]-imidazo-[1,2-a]pyrazolo[4,3-e]pyrimidin-4(5H)-one]
CCc1c2c(nn1Cc1ccc(-c3ccc(F)cn3)cc1)N1CC(C)(C)N=C1N(C)C2=O [Example 5, 7,8-Dihydro-2-(4-(5-fluoropyridin2-yl)benzyl)-3-ethyl-5,7,7-trimethyl-[2H]-imidazo-[1,2-a]pyrazolo[4,3-e]pyrimidin-4(5H)-one]
